Patent US5686486A, “4-hydroxy-benzopyran-2-ones and 4-hydroxy-cycloalkyl[b]pyran-2-ones useful to treat retroviral infections” (priority 1995, dated 1997)
Values joined by “and” are separate entries in the source; they are usually repeats but may differ in a detail not shown here. Identical values can stand only once.

Experiments:
HIV-1 protease [1] = target: T1, HIV-1 protease (Human immunodeficiency virus type 1 group M subtype B, UniProt P04585); assay: biochemical; conditions: for inhibition at 0.123 µM: read-out: HIV-1 Protease % Inhib, dose 0.123 uM; for inhibition at 0.37 µM: read-out: HIV-1 Protease % Inhib, dose 0.370 uM; for inhibition at 1.1 µM: read-out: HIV-1 Protease % Inhib, dose 1.100 uM; for inhibition at 3.3 µM: read-out: HIV-1 Protease % Inhib, dose 3.300 uM; for inhibition at 10 µM: read-out: HIV-1 Protease % Inhib, dose 10.000 uM; for inhibition at 30 µM: read-out: HIV-1 Protease % Inhib, dose 30.000 uM
In short: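 Biotinylated, FITC-labeled peptide substrate (20 μl of 0.2 μM) incubated with HIV-1 protease (10 μl of 0.1 μM) and compound in 0.1 M sodium acetate pH 5.5, 1.0 M NaCl, 0.05% NP-40, 1 h, room temperature, dark. Streptavidin beads then capture uncleaved substrate; filtered labeled product read by fluorescence, giving percent inhibition.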

HIV-1 protease [2] = target: T1, HIV-1 protease; assay: biochemical; conditions: read-out: HIV-1 FITC KI
In short: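 Ki from two-fold serial inhibitor dilutions (24–48 concentrations) with 40 nM HIV-1 protease stock and 200 μM substrate stock, 90 min at room temperature; stopped with avidin beads. Reference inhibitor run in parallel; Ki by nonlinear least-squares fit.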

| Molecule | inhibition at 0.123 µM (HIV-1 protease [1]) [%] | inhibition at 0.37 µM (HIV-1 protease [1]) [%] | inhibition at 1.1 µM (HIV-1 protease [1]) [%] | inhibition at 3.3 µM (HIV-1 protease [1]) [%] | inhibition at 10 µM (HIV-1 protease [1]) [%] | inhibition at 30 µM (HIV-1 protease [1]) [%] | Ki (HIV-1 protease [2]) | HIV-1 Protease % Inhib (HIV-1 protease [1]; dose 0.123 uM) [%] | HIV-1 Protease % Inhib (HIV-1 protease [1]; dose 0.370 uM) [%] | HIV-1 Protease % Inhib (HIV-1 protease [1]; dose 1.100 uM) [%] | HIV-1 Protease % Inhib (HIV-1 protease [1]; dose 3.300 uM) [%] | HIV-1 Protease % Inhib (HIV-1 protease [1]; dose 10.000 uM) [%] | HIV-1 Protease % Inhib (HIV-1 protease [1]; dose 30.000 uM) [%] | inhibition at 0.41 µM (HIV-1 protease [1]; read-out: HIV-1 Protease % Inhib, dose 0.410 uM) [%] | inhibition at 1.23 µM (HIV-1 protease [1]; read-out: HIV-1 Protease % Inhib, dose 1.230 uM) [%] | inhibition at 3.7 µM (HIV-1 protease [1]; read-out: HIV-1 Protease % Inhib, dose 3.700 uM) [%] | inhibition at 11 µM (HIV-1 protease [1]; read-out: HIV-1 Protease % Inhib, dose 11.000 uM) [%] | inhibition at 33 µM (HIV-1 protease [1]; read-out: HIV-1 Protease % Inhib, dose 33.000 uM) [%] | inhibition at 100 µM (HIV-1 protease [1]; read-out: HIV-1 Protease % Inhib, dose 100.000 uM) [%] |
| --- | --- | --- | --- | --- | --- | --- | --- | --- | --- | --- | --- | --- | --- | --- | --- | --- | --- | --- | --- |
| O=c1oc2c(c(O)c1C(c1cccc(NS(=O)(=O)c3c(F)c(F)c(F)c(F)c3F)c1)C1CC1)CCCCCC2 (stereo not shown) [Example 278, N-[3-[Cyclopropyl(5,6,7,8,9,10-hexahydro-4-hydroxy-2-oxo-2H-cycloocta[b]pyran-3-yl)methyl]phenyl]-2,3,4,5,6-pentafluoro-benzenesulfonamide] | 36.3 | 78.2 | 94.7 | 101 | 102 | 110 | 13.6 nM | – | – | – | – | – | – | – | – | – | – | – | – |
| CCC(=O)C1CCCCCc2c1oc(=O)c(C(c1ccccc1)C1CC1)c2O (stereo not shown) [Example 174, 3-(Cyclopropylphenylmethyl)-5,6,7,8,9,10-hexahydro-4-hydroxy-10-(1-oxopropyl)-2H-cycloocta[b]pyran-2-one] | 11.4 | 35.8 | 75 | 95.9 | 104 | 97.8 | 35 nM | – | – | – | – | – | – | – | – | – | – | – | – |
| O=c1oc2c(c(O)c1C(c1cccc(NS(=O)(=O)c3cccnc3)c1)C1CC1)CCCCCC2 (stereo not shown) [Example 314, N-[3-[Cyclopropyl(5,6,7,8,9,10-hexahydro-4-hydroxy-2-oxo-2H-cylcloocta[b]pyran-3-yl)methyl]phenyl]-3-pyridinesulfonamide] | 79.5 | 97.7 | 108 | 109 | 102 | 97.1 | 2.31 nM and 2.01 nM | – | – | – | – | – | – | – | – | – | – | – | – |
| O=c1oc2c(c(O)c1C(c1cccc(NS(=O)(=O)c3ccc(Cl)s3)c1)C1CC1)CCCCCC2 (stereo not shown) [Example 301, 5-Chloro-N-[3-[cyclopropyl(5,6,7,8,9,10-hexahydro-4-hydroxy-2-oxo-2H-cycloocta[b]pyran-3-yl)methyl]phenyl]-2-thiophenesulfonamide] | 74.7 | 91.2 | 102 | 100 | 104 | 114 | 4.8 nM | – | – | – | – | – | – | – | – | – | – | – | – |
| CC(C)(C)OC(=O)N[C@@H](Cc1c[nH]cn1)C(=O)Nc1cccc(C(c2c(O)c3c(oc2=O)CCCCCC3)C2CC2)c1 (single isomer, unassigned) [Example 240, Carbamic acid, [2-[[3-(R or S)-[cyclopropyl(5,6,7,8,9,10-hexahydro-4-hydroxy-2-oxo-2H-cycloocta[b]pyran-3-yl)methyl]phenyl]amino]-1-(S)-(1H-imidazol-4-ylmethyl)-2-oxoethyl]-, 1,1 dimethyl ethyl ester] | – | – | – | – | – | – | 4.2 nM and 5 nM | 54.87 | 89.42 | 111.38 | 113.39 | 114.19 | 109.5 | – | – | – | – | – | – |
| CCC(c1cccs1)c1c(O)c2c(oc1=O)CCCCCC2 (stereo not drawn) [Example 380, 3-(α-Ethylthien-2-ylmethyl)4-hydroxy-5,6,7,8,9,10-hexahydrocycloocta[b]pyran-2-one] | – | 21.5 | 57.2 | 82.5 | 103 | 108 | 87.9 nM | – | – | – | – | – | – | – | – | – | – | – | – |
| O=c1oc2c(c(O)c1C(c1cccc(NS(=O)(=O)c3cccc4nsnc34)c1)C1CC1)CCCCCC2 (stereo not shown) [Example 340, N-[3-[Cyclopropyl(5,6,7,8,9,10-hexahydro-4-hydroxy-2-oxo-2H-cycloocta[b]pyran-3-yl)methyl]phenyl]-2,1,3-benzothiadiazole-4-sulfonamide] | 77.8 | 93.2 | 90.9 | 96.5 | 101 | 96.5 | 1.9 nM | – | – | – | – | – | – | – | – | – | – | – | – |
| O=c1oc2c(c(O)c1C(c1ccccc1)C1CC1)CCCCCCC2 (stereo not shown) [Example 117, 3-(Cyclopropylphenylmethyl)-6,7,8,9,10,11-hexahydro-4-hydroxy-cyclonona[b]pyran-2(5H)-one] | – | – | – | – | – | – | 37 nM | – | – | – | – | – | – | 80.1 | 94 | 101 | 114 | 107 | 100 |
| O=c1oc2c(c(O)c1C(c1cccc(NS(=O)(=O)c3cccc(NO)c3)c1)C1CC1)CCCCCC2 (stereo not shown) [Example 353 (Second Title Compound), N-[3-[Cyclopropyl(5,6,7,8,9, 10-hexahydro-4-hydroxy-2-oxo-2H-cycloocta[b]pyran-3-yl)methyl]phenyl]-3-(hydroxyamino)-benzenesulfonamide] | 61.4 | 92.7 | 103 | 110 | 113 | 107 | 2.4 nM | – | – | – | – | – | – | – | – | – | – | – | – |
| O=c1oc2c(c(O)c1C(c1ccc(CO)s1)C1CC1)CCCCCC2 (stereo not shown) [Example 384] | 12.2 | 47.4 | 79.2 | 92.9 | 103 | 102 | 24.1 nM | – | – | – | – | – | – | – | – | – | – | – | – |
| O=c1oc2c(c(O)c1C(c1cccc(NS(=O)(=O)c3cccc(NS(=O)(=O)c4ccccc4)c3)c1)C1CC1)CCCCCC2 (stereo not shown) [Example 350, N-[3-[Cyclopropyl(5,6,7,8,9,10-hexahydro-4-hydroxy-2-oxo-2H-cycloocta[b]pyran-3-yl)methyl]phenyl]-3-[(phenylsulfonyl)amino]-benzenesulfonamide] | 22.2 | 64.3 | 82.2 | 98.3 | 102 | 101 | 6.6 nM | – | – | – | – | – | – | – | – | – | – | – | – |
| O=c1oc2c(c(O)c1C(c1cccc(NS(=O)(=O)Cc3ccccc3)c1)C1CC1)CCCCCC2 (stereo not shown) [Example 321, N-[3-[Cyclopropyl(5,6,7,8,9,10-hexahydro-4-hydroxy-2-oxo-2H-cycloocta[b]pyran-3-yl)methyl]phenyl]-benzenemethanesulfonamide] | 22.2 | 62.1 | 100 | 113 | 119 | 118 | 13.2 nM | – | – | – | – | – | – | – | – | – | – | – | – |
| O=c1oc2c(c(O)c1C(c1cccc(NS(=O)(=O)c3ccc(-c4ccccn4)s3)c1)C1CC1)CCCCCC2 (stereo not shown) [Example 310, N-[3-[Cyclopropyl(5,6,7,8,9,10-hexahydro4-hydroxy-2-oxo-2H-cycloocta[b]pyran-3-yl)methyl]phenyl]-5-(2-pyridinyl)-2-thiophenesulfonamide] | 46.2 | 86.2 | 94.9 | 99 | 103 | 102 | 2.37 nM | – | – | – | – | – | – | – | – | – | – | – | – |
| Cc1noc(C)c1S(=O)(=O)Nc1cccc(C(c2c(O)c3c(oc2=O)CCCCCC3)C2CC2)c1 (stereo not shown) [Example 338, N-[3-[Cyclopropyl(5,6,7,8,9,10-hexahydro-4-hydroxy-2-oxo-2H-cycloocta[b]pyran-3-yl)methyl]phenyl]-3,5-dimethyl-4-isoxazolesulfonamide] | 39.1 | 80.1 | 86.3 | 96.8 | 102 | 100 | 9.8 nM | – | – | – | – | – | – | – | – | – | – | – | – |
| N-[3-[Cyclopropyl(5,6,7,8,9,10-hexahydro-4-hydroxy-2-oxo-2H-cycloocta[b]pyran-3-yl)-methyl]phenyl]-(3-N-ethylbenzenesulfonyl)benzenesulfonamide [Example 414] | – | – | – | – | – | – | 3.5 nM | 62.73 | 85.78 | 103.16 | 105.93 | 104.38 | 109.61 | – | – | – | – | – | – |
| CCCC1CCCCc2c1oc(=O)c(C(c1ccccc1)C1CC1)c2O (stereo not shown) [Example 188, 3-(Cyclopropylphenylmethyl)-6,7,8,9-tetrahydro-4-hydroxy-9-propyl-cyclohepta[b]pyran-2(5H)-one] | 27.3 | 57 | 82.2 | 88.4 | 88.3 | 84.5 | 26 nM | – | – | – | – | – | – | – | – | – | – | – | – |
| O=c1oc2c(c(O)c1C(c1ccccc1)C1CC1)CCCCCC2CC1CO1 (stereo not shown) [Example 163, 3-(Cyclopropylphenylmethyl)-5,6,7,8,9,10-hexahydro-4-hydroxy-10-(oxiranylmethyl)-2H-cycloocta[b]pyran-2-one] | 17.7 | 56 | 84.2 | 98.6 | 107 | 105 | 34 nM | – | – | – | – | – | – | – | – | – | – | – | – |
| CCC(c1ccc(C)s1)c1c(O)c2c(oc1=O)CCCCCC2 (stereo not shown) [Example 381] | – | 24.1 | 62.3 | 80.4 | 99.8 | 96.7 | 39.1 nM | – | – | – | – | – | – | – | – | – | – | – | – |
